From patent US8178506B2, “Oligomeric compounds and compositions for use in modulation of small non-coding RNAs” (Regulus Therapeutics Inc., priority 2003, dated 2012) come the findings set out here.

Common to all, as to format: cell-based, human
In data set [1] the test system is differentiated adipocytes. The data set can be described thus: Hallmark genes and triglycerides in differentiated adipocytes. The conditions noted are these: 250 nM, transfected day nine, measured 12th day post differentiation.
For data set [2], the system named is mir-143 binding site in 3′-UTR of ERK5. Nature of the data set: pGL3-ERK5-3′UTR luciferase assays in HeLa cells. The conditions noted are these: for luciferase expression: HeLa cells, 24 hours. On the procedure: (§1) An expression system based on the pGL3-Control (Promega Corp., Madison Wis.) reporter vector and comprising predicted miRNA binding sites was used in transient transfections of HeLa cells with plasmids expressing oligomeric compounds mimicking miRNAs, pre-miRNAs or pri-miRNAs in order to assess the ability of these miRNA mimics to bind and regulate the expression of the luciferase reporter. The effect of increasing the copy number of the miRNA-binding site in the target was also tested by including multiple binding sites in artificial reporter constructs. It is understood that the presence of multiple miRNA-binding sites in a target can include binding sites for different miRNAs.
(§2) The following reporter plasmids were constructed by cloning the specified fragment into the XbaI site of the pGL3-control plasmid, placing the potential miRNA-binding site in the 3′-UTR of the luciferase reporter: The reporter plasmid pGL3-bulge(×3) contains three contiguous copies of the sequence ([…]; herein incorporated as SEQ ID NO: 874) which represents a sequence complementary to the mir-143 miRNA except that it is missing 2 nucleotides such that the mir-143 miRNA is presumed to adopt a bulged structure when it hybridizes to this target sequence. The pGL3-GLO1 reporter plasmid contains a DNA fragment comprising the 3′-UTR of the GLO1 sequence; this fragment was PCR-amplified using a primer beginning at nucleotide number 621 of the GLO1 sequence (GenBank Accession NM_006708.1, SEQ ID NO: 821) and the downstream primer hybridizing to the poly A tail. The pGL3-PP2A reporter plasmid contains a DNA fragment comprising the 3′-UTR of the PP2A gene; this fragment was PCR-amplified using a primer beginning at nucleotide number 921 of the PP2A sequence (GenBank Accession NM_004156.1) and the downstream primer hybridizing to the poly A tail. The reporter plasmid pGL3-ERK5-3′-UTR(×1) contains one copy of the sequence […] (herein incorporated as SEQ ID NO: 875), found in the 3′-UTR of ERK5 and predicted by Lewis, et al. to be bound by the mir-143 miRNA, and the reporter plasmid pGL3-ERK5-3′UTR(×3) has three contiguous copies of this sequence. The reporter plasmid pGL3-ERK5-3′UTR(ext) contains one copy of the sequence […] (herein incorporated as SEQ ID NO: 876), which includes an additional ten nucleotides at either end of the mir-143 binding site in 3′-UTR of ERK5 predicted by Lewis, et al. (Lewis et al., Cell, 2003, 115, 787-798). The plasmids pGL3-ERK5-cds(×1), pGL3-ERK5-cds(×2), pGL3-ERK5-cds(×3), and pGL3-ERK5-cds(×5) contain one, two, three or five contiguous copies, respectively, of the novel mir-143 binding site ([…]; herein incorporated as SEQ ID NO: 877) we identified within the coding sequence of ERK5. The unmodified pGL3-Control luciferase reporter vector was used as a negative control, and the pGL3-mir-143 sensor reporter plasmid was used as a positive control.
(§3) HeLa cells were routinely cultured and passaged as described. In some embodiments, HeLa cells were transfected with 0.05 μg of the relevant pGL3-sensor plasmid and 0.01 μg pRL-CMV plasmid. Additionally, in some embodiments, cells were treated at various dosages (11 nM, 33 nM, and 100 nM) with the following oligomeric compound mimics: 1) ds-mir-143, or 2) ds-Control as described. In accordance with methods described in Example 12, a luciferase assay was performed 24-hours after transfection. The results, shown in Tables 40 and 41, are an average of three trials. Data are presented as percent untreated control (luciferase plasmid only, not treated with oligomeric compound) luciferase expression, normalized to pRL-CMV levels.

Data set [3] deals with bulged mir-143 target sequence. Nature of the data set: pGL3-bulge(×3) luciferase assay in HeLa cells. The conditions noted are these: 24 hours; for luciferase activity from pGL3-bulge(×3): HeLa, 11, 33 and 100 nM; for luciferase expression: HeLa cells. As for the experimental part:
as §1, §2, §3

On to “CTAGTGGTCCTAAACATTTCAC (chemistry not given here) [ISIS 327878, uniform 2′-MOE PS; targets mir-203]”, for which the “expression of hallmark marker genes in differentiated adipocytes” value in data set [1] was “decreased expression of the aP2, HSL, Glut4 and PPARγ marker genes”.
For “ds-mir-143: double-stranded RNA of ISIS 342199 hybridized to its perfect complement ISIS 342200 (sense UGAGAUGAAGCACUGUAGCUCA; antisense UGAGCUACAGUGCUUCAUCUCA; RNA, backbone not given here)”, the “luciferase activity from pGL3-ERK5-3′UTR(×1)” value in data set [2] (HeLa, 11, 33 and 100 nM) was “did not inhibit luciferase activity”. In addition, the “luciferase activity from pGL3-ERK5-3′UTR(×3)” value in data set [2] (HeLa, 11, 33 and 100 nM) is on record as “inhibition of luciferase activity”. Besides, the luciferase expression amounted to 81.9 percent untreated control in data set [2] (Table 40, pGL3-ERK5-3′UTR(x1), 11 nM); 84.7 percent untreated control in data set [2] (Table 40, pGL3-ERK5-3′UTR(x1), 33 nM); 62.2 percent untreated control in data set [2] (Table 40, pGL3-ERK5-3′UTR(x1), 100 nM); 89.0 percent untreated control in data set [2] (Table 41, pGL3-ERK5-3′UTR(ext), 11 nM); 106.7 percent untreated control in data set [2] (Table 41, pGL3-ERK5-3′UTR(ext), 33 nM); 81.4 percent untreated control in data set [2] (Table 41, pGL3-ERK5-3′UTR(ext), 100 nM). The luciferase expression in data set [2] (Table 41, pGL3-ERK5-3′UTR(x1), 11 nM) came to 92.2 percent untreated control; in data set [2] (Table 41, pGL3-ERK5-3′UTR(x1), 33 nM), 108.1 percent untreated control; in data set [2] (Table 41, pGL3-ERK5-3′UTR(x1), 100 nM), 81.9 percent untreated control; in data set [2] (Table 41, pGL3-ERK5-3′UTR(x3), 11 nM) it was 51.7 percent untreated control; in data set [2] (Table 41, pGL3-ERK5-3′UTR(x3), 33 nM) it was 51.0 percent untreated control; in data set [2] (Table 41, pGL3-ERK5-3′UTR(x3), 100 nM), 28.2 percent untreated control. Further, the luciferase expression is 50.7 percent untreated control in data set [3] (Table 40, pGL3-bulge(x3), 11 nM); 35.4 percent untreated control in data set [3] (Table 40, pGL3-bulge(x3), 33 nM); 17.2 percent untreated control in data set [3] (Table 40, pGL3-bulge(x3), 100 nM); 36.1 percent untreated control in data set [3] (Table 41, pGL3-bulge(x3), 11 nM); 33.9 percent untreated control in data set [3] (Table 41, pGL3-bulge(x3), 33 nM); 22.2 percent untreated control in data set [3] (Table 41, pGL3-bulge(x3), 100 nM). In addition, the “luciferase activity from pGL3-bulge(×3)” value in data set [3] is given as “dose-dependent inhibition of luciferase activity”; in data set [3] (listed as mir-143 dsRNA mimic compound), “inhibited luciferase activity from the pGL3-bulge(×3) sensor plasmid in a dose-dependent manner”.
